From patent US8608842B2, “Infrared absorbing composition, infrared absorbing ink, recorded article, image recording method, and image detecting method” (FUJIFILM Corporation, priority 2010, dated 2013)

How the values were obtained:
Type in all cases: physicochemical
[1] = Ultraviolet curable ink of Example 4: reflected light of mark for copy protection, before and after xenon irradiation; conditions: xenon light of 70,000 lux, 72 hours; variation compared to the value before irradiation
Protocol: By mixing the components of the composition shown below, an ultraviolet curable ink having an infrared absorbing property was prepared.
By using the ultraviolet curable ink thus obtained, a mark for copy protection was printed on the same base paper as that used in Example 1 by Gravure printing. On top of the printed mark for copy protection, each of the three kinds of a process ink (FDOL Yellow, FDOL Magenta, and FDOL Cyan, trade names, manufactured by TOYO INK MFG. CO., LTD.) was applied as a layer by Gravure printing, or a mixture ink in which the three kinds of a process ink are mixed was applied as a layer by Gravure printing to hide the mark for copy protection, thus obtaining a printed article.
The mark for copy protection that is hidden by the process ink was irradiated with infrared light using a linear sensor (trade name: TCD1500C, manufactured by Toshiba) in which the infrared cut-off filter of linear sensor was replaced with an infrared transmitting filter (trade name: IR83, manufactured by Hoya) as a detection device, and the reflected light was detected simultaneously.
The reflection light intensity in the area of the mark for copy protection at the time of detecting the mark was divided by the reflection light intensity of the area outside the mark for copy protection. The resulting value of the comparative infrared absorbing agent A was set to 1, and a ratio of the resulting value with respect to the resulting value of the comparative infrared absorbing agent A was calculated for each compound.
In addition, the obtained printed article was irradiated continuously with xenon light of 70,000 lux for 72 hours by using a Xenon lamp. After the irradiation, similar to above, the reflection light intensity of the area of the mark for copy protection was divided by the reflection light intensity of the area outside the mark for copy protection, and the variation ratio [%] compared to the value before the irradiation was calculated to use it as an index for evaluation of light resistance.

[2] = Bar code pattern reading (PCS) of printed article before and after xenon light irradiation (light resistance); conditions: xenon light of 70,000 lux, 200 hours
Protocol: By mixing the components of the composition shown below, the infrared absorbing printing ink (1) was prepared.
By using each of the infrared absorbing printing ink obtained above, a bar code pattern was formed on a regular paper (trade name: MP-120, manufactured by PLUS Corporation), i.e., a base paper, by Gravure printing.
Subsequently, on the formed bar code pattern, another bar code pattern was additionally formed by using the infrared absorbing ink (2) having the composition shown below.
Next, on top of the bar code patterns formed by disposing two layers, three kinds of process inks having infrared transmittance (FDOL Yellow, FDOL Magenta, and FDOL Cyan, manufactured by TOYO INK MFG. CO., LTD. (trade names, manufactured by TOYO INK MFG. CO., LTD.) were further applied by Gravure printing to form a colored layer made of three visible colors (cyan, magenta, and yellow). As a result, a printed article having a bar code pattern disposed inside the matter was produced.
Two kinds of semiconductor laser beam having wavelengths of 830 nm and 905 nm respectively were irradiated onto the thus obtained printed article, and the detection was made by using a filter which cuts off the emission light having wavelength of 950 nm or less. As a result, it was possible to detect the pattern formed by the infrared absorbing ink.
Subsequently, xenon light of 70,000 lux was irradiated continuously for 200 hours onto the printed article by using a xenon lamp. After that, the reading state of the bar code pattern after the irradiation was evaluated. For the evaluation, PCS (print•contrast•signal) of 0.6 or more was evaluated as “good,” and PCS (print•contrast•signal) of less than 0.6 was evaluated as “bad.” The evaluation results are shown in Table 2 below.
The printed article was prepared in the same manner as Example 1 except that the solvent (a mixture solvent of toluene and methyl isobutyl ketone) in the composition of the infrared absorbing ink (1) and (2) is replaced with n-octane (SP value: 7.6), butyl acetate (SP value: 8.5), or isopropyl alcohol (IPA; SP values: 11.5), and evaluated.
The comparative printed article was prepared in the same manner as Example 1 except that the solvent (a mixture solvent of toluene and methyl isobutyl ketone) in the composition of the infrared absorbing ink (1) and (2) is replaced with n-pentane (SP value: 7.0; Example 2) or ethanol (SP value: 12.7; Example 3), and evaluated.

[3] = Solubility of IR coloring material in toluene at 25° C.; conditions: toluene, 25° C.
Protocol: Specifics are as follows.
First, a tetrahydrofuran (THF) solution prepared by adding the IR coloring material to TI-IF is measured by a spectrophotometer and a calibration curve is constructed. Next, a liquid is prepared by adding the IR coloring material to toluene to the level that there is a part of the coloring material left undissolved. The resulting liquid is subjected to ultrasonication for 10 minutes while being maintained at 25° C., and allowed to stand overnight at 25° C. The THF solution obtained after the standing is filtered using a 0.2 μm filter. The filtrate is diluted so that it falls within the linear range of the calibration curve, the absorbance is measured, and quantification is made using the calibration curve.
The solubility shown in Table 1 was measured according to the method described below. Specifics are as follows.
First, the THF solution prepared by adding the IR coloring material to tetrahydrofuran (THF) was measured by a spectrophotometer, and the calibration curve was established. Next, a liquid was prepared by adding the IR coloring material to toluene to the level that there is a part of coloring material left undissolved. The resulting liquid was subjected to ultrasonication for 10 minutes while being kept at 25° C., and allowed to stand overnight at 25° C. The THF solution obtained after the standing was filtered using a 0.2 μm filter. The filtrate was diluted so that it falls within the linear range of the calibration curve, and the absorbance was measured. Based on the measured value, the solubility was quantified using the calibration curve.

SMILES: CCCCCCCCOc1c2c(c(OCCCCCCCC)c3ccccc13)C1=Nc3c4c(OCCCCCCCC)c5ccccc5c(OCCCCCCCC)c4c4[n]3[Cu][n]3c(c5c(OCCCCCCCC)c6ccccc6c(OCCCCCCCC)c5c3=NC3=NC(=N4)c4c3c(OCCCCCCCC)c3ccccc3c4OCCCCCCCC)=NC2=N1 [Compound 25]
- Variation amount after irradiation [%] [1]: 2%
- Reading after irradiation ([2]; Example 2, ink solvent n-pentane (SP value: 7.0)): Bad (PCS (print•contrast•signal) of less than 0.6 was evaluated as “bad.”)
- Reading after irradiation ([2]; Example 3, ink solvent ethanol (SP value: 12.7)): Bad (PCS (print•contrast•signal) of less than 0.6 was evaluated as “bad.”)
- Reading after irradiation ([2]; ink solvent IPA (SP value: 11.5)): Good (PCS (print•contrast•signal) of 0.6 or more was evaluated as “good,”)
- Reading after irradiation ([2]; ink solvent butyl acetate (SP value: 8.5)): Good (PCS (print•contrast•signal) of 0.6 or more was evaluated as “good,”)
- Reading after irradiation ([2]; ink solvent n-octane (SP value: 7.6)): Good (PCS (print•contrast•signal) of 0.6 or more was evaluated as “good,”)
- Reading after irradiation ([2]; ink solvent toluene/methyl isobutyl ketone = 70/30): Good (PCS (print•contrast•signal) of 0.6 or more was evaluated as “good,”)
- Solubility [mg/ml] Solvent: toluene [3]: 27 mg/mL
